Consider 21 molecules from article PMC7815716, “Mechanistic basis of breast cancer resistance protein inhibition by new indeno[1,2-b]indoles” (Scientific Reports, 2021).

Series [1] deals with T1, ABCG2 (Homo sapiens, UniProt Q9UNQ0).
T1 sequence (Q9UNQ0 1-655): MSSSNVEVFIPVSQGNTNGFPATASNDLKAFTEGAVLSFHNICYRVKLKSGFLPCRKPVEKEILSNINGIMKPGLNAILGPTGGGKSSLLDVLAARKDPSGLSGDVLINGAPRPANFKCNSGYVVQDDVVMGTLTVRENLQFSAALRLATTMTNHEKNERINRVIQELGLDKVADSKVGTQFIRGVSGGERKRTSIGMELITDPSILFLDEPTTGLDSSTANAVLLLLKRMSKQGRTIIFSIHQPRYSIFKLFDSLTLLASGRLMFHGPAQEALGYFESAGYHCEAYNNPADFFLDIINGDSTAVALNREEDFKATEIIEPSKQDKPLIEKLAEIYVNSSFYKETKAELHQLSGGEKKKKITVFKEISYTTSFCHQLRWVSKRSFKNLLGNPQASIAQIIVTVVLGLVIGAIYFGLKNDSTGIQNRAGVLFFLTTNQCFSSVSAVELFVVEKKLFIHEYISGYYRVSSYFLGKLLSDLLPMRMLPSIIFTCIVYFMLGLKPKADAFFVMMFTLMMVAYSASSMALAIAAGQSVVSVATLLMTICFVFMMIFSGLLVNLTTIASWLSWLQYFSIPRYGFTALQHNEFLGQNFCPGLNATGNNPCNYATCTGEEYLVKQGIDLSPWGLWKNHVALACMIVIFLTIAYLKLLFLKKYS
Kind of series: Inhibition of ABCG2-mediated mitoxantrone efflux (flow cytometry). In kind it is cell-based. Details: expressed in transfected cells; host or cells: HEK293. The conditions noted are these: for inhibition at 30 min: human, probe mitoxantrone (10 µM), from IC50 fitted curves, HEK293-ABCG2, mitoxantrone, 100% = Ko143 0.5 µM, read-out: IMAX (%) ± SD, maximal inhibition percentage; for TR, therapeutic ratio (IG50/IC50): ratio between IG50 and IC50 values. The procedure: ABCG2 inhibition assays were carried out on HEK293 WT and HEK293-ABCG2 cells. Cells were seeded at the density of 1 × 10^5 cells/well in 24 well culture plates and incubated for 48 h at 37 °C under 5% CO2. Cells were treated with compounds and 10 μM of mitoxantrone for 30 min at 37 °C and 5% CO2. After incubation the cells were washed with PBS, trypsinized and resuspended in ice cold PBS. The intracellular drug fluorescence was monitored with a FACS Calibur cytometer (Becton Dickinson) using the FL4 channel, with at least 10,000 events collected. The maximal fluorescence (taken as 100%) was determined with the difference between the mean fluorescence of HEK-ABCG2 cells incubated with 0.5 μM Ko143 (ABCG2 reference inhibitor) or by using the HEK293 WT cell line as a control and cells without inhibitor (mitoxantrone alone). The percent of inhibition was determined as previously described. For bimodulation assays the cells were concomitantly treated with 10 μM of one or two combined inhibitors under similar conditions as described previously. For washing assays, cells were treated with 10 μM concentrations of compounds for 30 min. Then, the medium with the inhibitor was removed and the cells were washed with PBS and incubated only with culture medium for different periods of time (0.5 and 3 h). After incubation, cells were exposed to 5 µM mitoxantrone for 30 min, and then analyzed by flow cytometry. The percentage of transport inhibition was calculated by the following equation: %Inhibition=C-S/I-S×100 where “C” corresponds to the intracellular fluorescence of cells in the presence of the tested compounds and substrate (mitoxantrone to ABCG2, Rhodamine 123 to ABCB1 and calcein to ABCC1), “S” corresponds to the intracellular fluorescence of cells in the presence of substrate alone, and “I” corresponds to the intracellular fluorescence of cells in the presence of the substrate and reference inhibitor (Ko143 to ABCG2, GF120918 to ABCB1 and verapamil to ABCC1).

The test system of series [2] is ABCG2. The conditions noted are these: cited from earlier work.
A further series has as its system HEK293 WT cells. Kind of series: SN-38 cytotoxicity in control cells, MTT assay. In kind it is cell-based, human. Here is the method: Cell viability was evaluated with a 3-(4,5-dimethylthiazol-2-yl)-2,5-diphenyltetrazolium bromide (MTT) colorimetric assay. HEK293 WT and HEK293-ABCG2 cells were seeded into 96-well culture plates at a 1.5 × 10^4 cells/well density. After overnight incubation, the cells were treated with various concentrations of compounds (0–100 µM) for 72 h at 37 °C under 5% CO2. […] Sensitization experiments were also carried out on H460 and H460MX20 cells. For these experiments, H460 and H460MX20 cells were seeded into 96-well culture plates at 1.0 × 10^4 cells/well density. […] After the treatment, the culture medium was removed and 100 μL of a 0.5 mg.mL^−1 MTT solution was added. Cells were then incubated for 4 h at 37 °C under 5% CO2. The formazan crystals were dissolved with a solution of DMSO/ethanol (1:1) and the absorbance was measured at 570 nm using a Multiscan FC microplate reader (Thermo Scientific). The results were expressed as percentage of viable cells versus control cells (0.1% DMSO, v/v) taken as 100%.

The target of series [3] is T1, ABCG2. The conditions noted are these: previously published data, cited from earlier work.
Where [4] appears, read: HEK293-ABCG2 cells, mitoxantrone 10 µM, 30 min, read-out: IC50 (µM) ± SD, inhibition of ABCG2-mediated mitoxantrone efflux.

The structures appear in SMILES notation. “And” between values parts separate entries of the source, which are not always exact repeats. Identical values can stand only once. Like-named read-outs stand apart in the source and are kept apart here. Where only a bound is given, the exact number is not on record here.

`COc1ccccc1CCn1c2c(c3c1-c1ccccc1C3=O)C(=O)CC(C)C2` (stereo not drawn) [5a, 5-(2-Methoxyphenethyl)-7-methyl-5,6,7,8-tetrahydroindeno[1,2-b]indole-9,10-dione] returned a melting point of 204 °C. Moreover, the IC50 at ABCG2 [1] (setting [4]) was determined as 0.25 ± 0.01 µM. The inhibition at 30 min at ABCG2 [1] (HEK293-ABCG2 cells) came to 72.5 ± 3.72%. Moreover, the “TR, therapeutic ratio (IG50/IC50)” value on ABCG2 [1] is on record as above 393.60.
As for `O=C1c2ccccc2-c2c1c1c(n2CCc2ccccc2)CCC(Cc2ccccc2)C1=O` (stereo not drawn) [5b, 8-Benzyl-5-phenethyl-5,6,7,8-hexahydroindeno[1,2-b]indole-9,10-dione], on ABCG2 [1] (setting [4]), the IC50 came out at 0.45 ± 0.1 µM. Besides, the inhibition at 30 min at ABCG2 [1] (HEK293-ABCG2 cells) is 113 ± 3.67%. The “TR, therapeutic ratio (IG50/IC50)” value on ABCG2 [1] was found to be 28.10.
In turn, `COc1ccc2[nH]cc(CCn3c4c(c5c3-c3ccccc3C5=O)C(=O)CCC4)c2c1` [5c, 5-(2-(5-Methoxy-1H-indol-3-yl)ethyl)-5,6,7,8-tetrahydroindeno[1,2-b]indole-9,10-dione] came in with a melting point of 279 °C. Further, on ABCG2 [1] (setting [4]), the IC50 was 0.65 ± 0.03 µM. Further, the inhibition at 30 min on ABCG2 [1] (HEK293-ABCG2 cells) came to 60 ± 4.04%. Also, the “TR, therapeutic ratio (IG50/IC50)” value at ABCG2 [1] was 56.41.
The corresponding values for `COc1cccc(CCn2c3c(c4c2-c2cc(O)ccc2C4=O)C(=O)CCC3)c1` [5d, 3-Hydroxy-5-(3-methoxyphenethyl)-5,6,7,8-tetrahydroindeno[1,2-b]indole-9,10-dione] are 222 °C, 2.71 ± 0.14 µM, 68.5 ± 0.68% and 9.85.
On the same counts, the results for `CC1CC(=O)c2c3c(n(CCc4ccccc4)c2C1)-c1cccc(O)c1C3=O` (stereo not drawn) [5f, 1-Hydroxy-7-Methyl-5-phenethyl-5,6,7,8-tetrahydroindeno[1,2-b]indole-9,10-dione] are 246 °C, 0.18 ± 0.02 µM, 48.4 ± 0.8% and 153.24.
In turn, `CC1CC(=O)c2c3c(n(CCc4ccccc4)c2C1)-c1c(O)cccc1C3=O` (stereo not drawn) [5g, 4-Hydroxy-7-methyl-5-phenethyl-5,6,7,8-tetrahydroindeno[1,2-b]indole-9,10-dione] showed a melting point of 283 °C. Besides, the IC50 at ABCG2 [1] (setting [4]) was found to be 0.44 ± 0.03 µM. The inhibition at 30 min on ABCG2 [1] (HEK293-ABCG2 cells) stood at 65.2 ± 0.94%. For the same molecule, on ABCG2 [1], the “TR, therapeutic ratio (IG50/IC50)” value was 58.79.
The corresponding values for `COc1ccccc1CCn1c2c(c3c1-c1cccc(O)c1C3=O)C(=O)CCC2` [5h, 1-Hydroxy-5-(2-methoxyphenethyl)-5,6,7,8-tetrahydroindeno[1,2-b]indole-9,10-dione] are 173 °C, 0.42 ± 0.07 µM, 69.6 ± 1.14% and 57.21.
In turn, `COc1ccccc1CCn1c2c(c3c1-c1cccc(OCC=C(C)C)c1C3=O)C(=O)CCC2` [5j, 5-(2-Methoxyphenethyl)-1-(3-methylbut-2-enyloxy)-5,6,7,8-tetrahydroindeno[1,2-b]indole-9,10-dione] had a melting point of 118 °C. For the same molecule, the IC50 on ABCG2 [1] (setting [4]) came to 0.48 ± 0.08 µM. In addition, the inhibition at 30 min on ABCG2 [1] (HEK293-ABCG2 cells) was found to be 85.6 ± 2.59%. In addition, the “TR, therapeutic ratio (IG50/IC50)” value at ABCG2 [1] was 32.86.
As to `COc1ccccc1CCn1c2c(c3c1-c1c(OCC=C(C)C)cccc1C3=O)C(=O)CCC2` [5k, 5-(2-Methoxyphenethyl)-4-(3-methylbut-2-enyloxy)-5,6,7,8-hexahydroindeno[1,2-b]indole-9,10-dione], on ABCG2 [1] (setting [4]), the IC50 was found to be 0.92 ± 0.1 µM. In addition, at ABCG2 [1] (HEK293-ABCG2 cells), the inhibition at 30 min is 116 ± 2.36%. Moreover, the “TR, therapeutic ratio (IG50/IC50)” value at ABCG2 [1] is 22.85.
As to `COc1ccccc1CCn1c2c(c3c1-c1cccc(OCC=C(C)C)c1C3=O)C(=O)CC(C)C2` (stereo not drawn) [5l, 5-(2-Methoxyphenethyl)-7-methyl-1-((3-methylbut-2-enyl)oxy)-5,6,7,8-tetrahydroindeno[1,2-b]indole-9,10-dione], on ABCG2 [1] (setting [4]), the IC50 turned out to be 0.24 ± 0.03 µM. Further, the inhibition at 30 min on ABCG2 [1] (HEK293-ABCG2 cells) was 82.3 ± 3.44%. Besides, the “TR, therapeutic ratio (IG50/IC50)” value at ABCG2 [1] is 59.72.
`COc1ccccc1CCn1c2c(c3c1-c1c(OCC=C(C)C)cccc1C3=O)C(=O)CC(C)C2` (stereo not drawn) [5m, 5-(2-Methoxyphenethyl)-7-methyl-4-((3-methylbut-2-enyl)oxy)-5,6,7,8-hexahydroindeno[1,2-b]indole-9,10-dione]: the IC50 on ABCG2 [1] (setting [4]) was 0.19 ± 0.07 µM. Further, the inhibition at 30 min at ABCG2 [1] (HEK293-ABCG2 cells) is 87.4 ± 2.46%. For the same molecule, the “TR, therapeutic ratio (IG50/IC50)” value at ABCG2 [1] is reported as 66.23.
For the molecule `CC(C)=CCOc1cccc2c1-c1c(c3c(n1CCc1ccccc1)CC(C)CC3=O)C2=O` (stereo not drawn) [5n], the IC50 at ABCG2 [1] (setting [4]) worked out at 4.09 ± 0.56 µM. The inhibition at 30 min at ABCG2 [1] (HEK293-ABCG2 cells) was 133 ± 3.35%. The “TR, therapeutic ratio (IG50/IC50)” value at ABCG2 [1] worked out at 5.26.
Turning to `COc1cc2c(cc1OC)-c1c(c3c(O)cc(C)cc3n1CCc1ccccc1)C2=O` [6e, 9-Hydroxy-2,3-dimethoxy-7-methyl-5-phenethylindeno[1,2-b]indol-10(5H)-one], the melting point came to 198 °C. In addition, on ABCG2 [1], the IC50 amounted to 0.2 ± 0.04 µM and the “TR, therapeutic ratio (IG50/IC50)” value came to 212.38. For the same molecule, the inhibition at 30 min on ABCG2 [1] (HEK293-ABCG2 cells) was found to be 66.8 ± 1.79%.
For the molecule `COc1ccc2c3c([nH]c2c1)[C@H](CC(C)C)N1C(=O)[C@H](CCC(=O)OC(C)(C)C)NC(=O)[C@@H]1C3` [Ko143], in the series on ABCG2 [2], the “Effect on the ATPase activity of ABCG2” value is “inhibit the ATPase activity”.
Regarding `CCc1c2c(nc3ccc(O)cc13)-c1cc3c(c(=O)n1C2)COC(=O)[C@]3(O)CC` [SN-38], the “FR, fold reversal” value with HEK293 WT cells (SN-38 alone (reference)) stood at 1.00. The IC50 in the series on HEK293 WT cells (SN-38 alone, 72 h, read-out: IG50 (SN-38 nM ± SD)) is 8.24 nM and 7.53 nM and 10 nM and 7.58 nM.
On to `O=C1c2c(O)ccc(O)c2C(=O)c2c(NCCNCCO)ccc(NCCNCCO)c21` [mitoxantrone], for which the “Stimulation of the ATPase activity of ABCG2” value in the series with ABCG2 [2] is given as 40%.
On to `CC1CC(=O)c2c3c(n(CCc4ccccc4)c2C1)-c1ccccc1C3=O` (stereo not drawn) [p4h], for which, at ABCG2 [3], the “TR, therapeutic ratio (IG50/IC50)” value is on record as above 435.00.
In the case of `COc1ccccc1CCn1c2c(c3c1-c1ccccc1C3=O)C(=O)CCC2` [p4j], the “TR, therapeutic ratio (IG50/IC50)” value on ABCG2 [3] is recorded as 130.00.
Turning to `COc1cccc(CCn2c3c(c4c2-c2ccccc2C4=O)C(=O)CCC3)c1` [p4k], the “TR, therapeutic ratio (IG50/IC50)” value on ABCG2 [3] is 41.00.
Consider `Cc1cc(O)c2c3c(n(CCc4ccccc4)c2c1)-c1ccccc1C3=O` [p5h], for which, on ABCG2 [3], the “TR, therapeutic ratio (IG50/IC50)” value is listed as 360.00. On ABCG2 [3] (read-out: IC50 (µM) ± SD, inhibition of ABCG2-mediated mitoxantrone efflux), the IC50 is 0.15 ± 0.01 µM.
As for `COc1cc2nc(N3CCN(C(=O)c4ccco4)CC3)nc(N)c2cc1OC` [prazosin], the “Stimulation of the ATPase activity of ABCG2” value with ABCG2 [2] was 100%.
